Laboratory results: ChEMBL document CHEMBL2074330, “Identification of glutathione as a driving force and leukotriene C4 as a substrate for oatp1, the hepatic sinusoidal organic solute transporter” (J Biol Chem, 1998)

Key:
[1] = molecular target: T1, Solute carrier organic anion transporter family member 1A1 (Rattus norvegicus, UniProt P46720); test: TP_TRANSPORTER: inhibition of LTC4 uptake (LTC4: 0.01uM, p-Chlorophenacyl-SG: 1000 uM) in Xenopus laevis oocytes; assay type: functional, cell-based, Oocyte; set-up: scale not given: the % may be the effect or the level left; conditions: probe LTC4, read-out: Activity
T1 sequence (P46720 whole entry): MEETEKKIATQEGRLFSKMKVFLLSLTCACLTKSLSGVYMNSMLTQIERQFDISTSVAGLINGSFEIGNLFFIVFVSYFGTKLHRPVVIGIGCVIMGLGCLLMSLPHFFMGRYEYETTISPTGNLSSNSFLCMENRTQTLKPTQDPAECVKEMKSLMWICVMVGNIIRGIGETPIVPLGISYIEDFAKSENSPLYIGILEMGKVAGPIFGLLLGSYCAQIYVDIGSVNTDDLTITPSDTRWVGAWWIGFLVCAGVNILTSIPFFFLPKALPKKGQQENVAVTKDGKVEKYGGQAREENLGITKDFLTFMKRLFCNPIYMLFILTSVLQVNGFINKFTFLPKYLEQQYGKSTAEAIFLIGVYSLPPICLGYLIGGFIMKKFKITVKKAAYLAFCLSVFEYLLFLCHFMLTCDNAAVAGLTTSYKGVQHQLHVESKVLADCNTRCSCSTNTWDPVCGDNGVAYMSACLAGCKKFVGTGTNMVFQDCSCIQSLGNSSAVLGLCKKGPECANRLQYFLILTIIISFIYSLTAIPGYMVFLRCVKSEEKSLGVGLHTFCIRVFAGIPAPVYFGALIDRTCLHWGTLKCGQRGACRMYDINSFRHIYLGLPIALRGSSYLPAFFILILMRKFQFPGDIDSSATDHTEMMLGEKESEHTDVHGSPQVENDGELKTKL

[2] = molecular target: T1, Solute carrier organic anion transporter family member 1A1; test: TP_TRANSPORTER: inhibition of DNP-SG uptake (DNP-SG: 50 uM, p-Chlorophenacyl-SG: 1000 uM) in Xenopus laevis oocytes; assay type: functional, cell-based, Oocyte; set-up: scale not given: the % may be the effect or the level left; conditions: probe DNP-SG, read-out: Activity
[3] = molecular target: T1, Solute carrier organic anion transporter family member 1A1; test: TP_TRANSPORTER: inhibition of DNP-SG uptake (DNP-SG: 50 uM, BSP: 250 uM) in Xenopus laevis oocytes; assay type: functional, cell-based; set-up: scale not given: the % may be the effect or the level left; conditions: oocyte
[4] = molecular target: T1, Solute carrier organic anion transporter family member 1A1; test: TP_TRANSPORTER: inhibition of LTC4 uptake (LTC4: 0.01uM, BSP: 250 uM) in Xenopus laevis oocytes; assay type: functional, cell-based, Oocyte; set-up: scale not given: the % may be the effect or the level left; conditions: probe LTC4, read-out: Activity
[5] = molecular target: T1, Solute carrier organic anion transporter family member 1A1; test: TP_TRANSPORTER: inhibition of LTC4 uptake (LTC4: 0.01uM, DNP-SG: 1000 uM) in Xenopus laevis oocytes; assay type: functional, cell-based; set-up: scale not given: the % may be the effect or the level left; conditions: oocyte
[6] = molecular target: T1, Solute carrier organic anion transporter family member 1A1; test: TP_TRANSPORTER: inhibition of LTC4 uptake (LTC4: 0.01uM, Bilirubin ditaurate: 500 uM) in Xenopus laevis oocytes; assay type: functional, cell-based, Oocyte; set-up: scale not given: the % may be the effect or the level left; conditions: probe LTC4, read-out: Activity
[7] = molecular target: T1, Solute carrier organic anion transporter family member 1A1; test: TP_TRANSPORTER: inhibition of DNP-SG uptake (DNP-SG: 50 uM, Bilirubin ditaurate: 500 uM) in Xenopus laevis oocytes; assay type: functional, cell-based, Oocyte; set-up: scale not given: the % may be the effect or the level left; conditions: probe DNP-SG, read-out: Activity
[8] = molecular target: T1, Solute carrier organic anion transporter family member 1A1; test: TP_TRANSPORTER: inhibition of DNP-SG uptake (DNP-SG: 50 uM, DIDS: 250 uM) in Xenopus laevis oocytes; assay type: functional, cell-based, Oocyte; set-up: scale not given: the % may be the effect or the level left; conditions: probe DNP-SG, read-out: Activity
[9] = molecular target: T1, Solute carrier organic anion transporter family member 1A1; test: TP_TRANSPORTER: inhibition of LTC4 uptake (LTC4: 0.01uM, DIDS: 250 uM) in Xenopus laevis oocytes; assay type: functional, cell-based, Oocyte; set-up: scale not given: the % may be the effect or the level left; conditions: probe LTC4, read-out: Activity
[10] = molecular target: T1, Solute carrier organic anion transporter family member 1A1; test: TP_TRANSPORTER: inhibition of DNP-SG uptake (DNP-SG: 50 uM, Ouabain: 500 uM) in Xenopus laevis oocytes; assay type: functional, cell-based, Oocyte; set-up: scale not given: the % may be the effect or the level left; conditions: probe DNP-SG, read-out: Activity
[11] = molecular target: T1, Solute carrier organic anion transporter family member 1A1; test: TP_TRANSPORTER: inhibition of LTC4 uptake (LTC4: 0.01uM, Ouabain: 500 uM) in Xenopus laevis oocytes; assay type: functional, cell-based, Oocyte; set-up: scale not given: the % may be the effect or the level left; conditions: probe LTC4, read-out: Activity
[12] = substrate: CCCCC/C=C\C\C=C/C=C/C=C/[C@@H](SC[C@@H](NC(=O)CC[C@H](N)C(=O)O)C(=O)NCC(=O)O)[C@@H](O)CCCC(=O)O; test: (§1) TP_TRANSPORTER: uptake in Xenopus laevis oocytes; assay type: functional, cell-based, Oocyte
[13] = substrate: N[C@@H](CCC(=O)N[C@H](CSc1ccc([N+](=O)[O-])cc1[N+](=O)[O-])C(=O)NCC(=O)O)C(=O)O; test: as §1; assay type: functional, cell-based, Oocyte

NC(CCC(=O)N[C@@H](CSCC(=O)c1ccc(Cl)cc1)C(=O)NCC(=O)O)C(=O)O (stereo partly drawn)
activity at 1000 µM [1]: 23% | activity at 1000 µM [2]: 31%

O=C1OC(c2ccc(O)c(S(=O)(=O)[O-])c2)(c2ccc(O)c(S(=O)(=O)[O-])c2)c2c(Br)c(Br)c(Br)c(Br)c21.[Na+].[Na+] [SULFOBROMOPHTHALEIN SODIUM]
Activity [3]: < 2% | activity at 250 µM [4]: < 2%

N[C@@H](CCC(=O)N[C@H](CSc1ccc([N+](=O)[O-])cc1[N+](=O)[O-])C(=O)NCC(=O)O)C(=O)O
Activity [5]: 15%

C=CC1=C(C)/C(=C/c2[nH]c(Cc3[nH]c(/C=C4\NC(=O)C(C)=C4C=C)c(C)c3CCC(=O)NCCS(=O)(=O)O)c(CCC(=O)NCCS(=O)(=O)O)c2C)NC1=O [BILIRUBIN DITAURATE]
activity at 500 µM [6]: 4% | activity at 500 µM [7]: 6%

O=S(=O)(O)c1cc(N=C=S)ccc1/C=C/c1ccc(NC=S)cc1S(=O)(=O)O
activity at 250 µM [8]: 39% | activity at 250 µM [9]: 25%

C[C@@H]1O[C@@H](O[C@H]2C[C@@H](O)[C@]3(CO)[C@H]4[C@H](O)C[C@]5(C)[C@@H](C6=CC(=O)OC6)CC[C@]5(O)[C@@H]4CC[C@]3(O)C2)[C@H](O)[C@H](O)[C@H]1O [OUABAIN]
activity at 500 µM [10]: 61% | activity at 500 µM [11]: 52%

B1: Solute carrier organic anion transporter family member 1A1 (Rattus norvegicus) (protein)
chain: MEETEKKIATQEGRLFSKMKVFLLSLTCACLTKSLSGVYMNSMLTQIERQFDISTSVAGLINGSFEIGNLFFIVFVSYFGTKLHRPVVIGIGCVIMGLGCLLMSLPHFFMGRYEYETTISPTGNLSSNSFLCMENRTQTLKPTQDPAECVKEMKSLMWICVMVGNIIRGIGETPIVPLGISYIEDFAKSENSPLYIGILEMGKVAGPIFGLLLGSYCAQIYVDIGSVNTDDLTITPSDTRWVGAWWIGFLVCAGVNILTSIPFFFLPKALPKKGQQENVAVTKDGKVEKYGGQAREENLGITKDFLTFMKRLFCNPIYMLFILTSVLQVNGFINKFTFLPKYLEQQYGKSTAEAIFLIGVYSLPPICLGYLIGGFIMKKFKITVKKAAYLAFCLSVFEYLLFLCHFMLTCDNAAVAGLTTSYKGVQHQLHVESKVLADCNTRCSCSTNTWDPVCGDNGVAYMSACLAGCKKFVGTGTNMVFQDCSCIQSLGNSSAVLGLCKKGPECANRLQYFLILTIIISFIYSLTAIPGYMVFLRCVKSEEKSLGVGLHTFCIRVFAGIPAPVYFGALIDRTCLHWGTLKCGQRGACRMYDINSFRHIYLGLPIALRGSSYLPAFFILILMRKFQFPGDIDSSATDHTEMMLGEKESEHTDVHGSPQVENDGELKTKL
Km [12]: 0.27 µM | Km [13]: 408 µM
